Experimental data as given in patent US12478081B2, “Application of aspartic acid derivative in preparing animal feed additive” (ANIPHA TECHNOLOGIES PTY LTD, priority 2018, dated 2025).
Marks after values point to notes of the source that are not given here.

Legend:
weaned piglets = experiment: Breeding test: production performance of weaned piglets; type: in vivo, Duroc×Landrace×Yorkshire cross-bred weaned piglets; conditions: weaned piglets, 1000 ppm metal ion salt in basal daily ration, 40 days
From the text: From 95 litters of 28±2 days old Duroc×Landrace×Yorkshire cross-bred weaned piglets, 360 clinically healthy piglets with similar body weights were selected as test pigs, which were randomly divided into 12 groups, with 3 replications per group and 10 pigs (half of male and female) per replication. The piglets were attracted to the food trough at the age of 7 days, and the hog house for 28-day-old weaned pigs has a cement floor, steel fence, good ventilation, and suitable temperature. The pigpens and utensils were sterilized before the test.
During the test period, the test pigs were free-stall housed in the same pigpen under the same feeding and management conditions, and were free to drink water and eat feed. The hog house was cleaned once a day, and the floor is washed once every three days to maintain clean and hygienic conditions. The test pigs were fed three times a day. The test groups include control and test groups. Group I is the control group, in which only the basal daily ration was fed to the piglets. […] 1000 ppm of a the aspartic acid derivative metal ion salt was added into the basal daily ration for the piglets in the groups VIII-XII, as shown in Table 2. No other antioxidant ingredients or growth promoters were added for the test groups during the entire feeding process. The test period was 40 days.
The test pigs were weighed during 7:00 to 9:00 in the morning of Day 0 and Day 40 after the start of the test. During the test period, the feed intake and health status of the piglets were observed every day, the remaining daily ration was weighed, the feed consumption was recorded, and the average daily feed intake (ADFI, g/d*each pig), the average daily gain (ADG, g/d*each pig), and the feed conversion ratio (FCR) were calculated. Calculation formulas are as follows: […]
The test data was statistically analyzed using SPSS18 software. First, a one-way analysis of variance (ANOVA) was performed on the data. If the difference between treatments is significant, Duncan's method was used for multiple comparisons, and the significance level was 0.05.

[1] = Thermal stability of compounds at 60° C. (HPLC content of raw material and 2% premix); type: physicochemical; conditions: for Detection result of the content of test sample (%) Day 5: Day 5, relative to Day 0; for Detection result of the content of test sample (%) Day 10: Day 10, relative to Day 0
Protocol: The variations of the contents of the main ingredient of the aspartic acid derivative raw material and the main ingredient of a premix containing 2% mass fraction of the aspartic acid derivative (hereinafter referred to as 2% premix) over time were investigated under the conditions of stability test at 60° C.
Experimental apparatus: drug stability incubator, Waters high-performance liquid chromatograph (HPLC), etc.
Test samples: N-carbamoyl-DL-aspartic acid (compound 1), diethyl N-carbamoyl-DL-aspartate (compound 2), Sodium N-carbamoyl-DL-aspartate (compound 3), Calcium N-carbamoyl-DL-aspartate (compound 4), Zinc N-carbamoyl-DL-aspartate (compound 5), Copper N-carbamoyl-DL-aspartate (compound 6), Iron N-carbamoyl-DL-aspartate (compound 7), N-glycyl-DL-aspartic acid (compound 8), N-(4-aminobutyryl)-DL-aspartic acid (compound 9), N-(10-aminodecanoyl)-DL-aspartic acid (compound 10), N-(14-aminomyristoyl)-DL-aspartic acid (compound 11).
Preparation of standard solution: 50 mg of the test sample raw material was ultrasonically dissolved in 50 mL of water to obtain a working reserve solution. An appropriate amount of the working reserve solution was taken and diluted with water respectively to concentrations of 125 ppm, 250 ppm, 500 ppm, and 1000 ppm for HPLC testing. It was checked whether the sample concentrations are in a linear relationship with the peak area response values in HPLC, and a standard curve was established.
Preparation of test solution: An appropriate amount of the test sample raw material and an appropriate amount of a premix containing 2% mass fraction of the test sample (hereinafter referred to as 2% premix) were separately ultrasonically dissolved in an appropriate amount of water to form a 1000 ppm solution, which is filtered through a 0.22 µm filter membrane and then analyzed by HPLC.
HPLC analysis conditions: chromatographic column: Waters C18 column (250 mm×4.6 mm, 5 μm); mobile phase: 0.05% phosphoric acid:methanol=95:5 (v:v) (raw material); 0.05% phosphoric acid: methanol (gradient elution); methanol: 5%→40% (0-15 min) curve 6, 40%→5% (15-16 min) curve 1, 5% (16-23 min) curve 1, (premix, feed); detection wavelength: 210 nm; column temperature: 25° C.; sample size: 20 μL; flow rate: 1 mL/min.
Test method: The test sample raw material and its 2% premix were placed in a culture plate, spread into a thin layer of <5 mm, and placed at 60° C. Samples were taken on the day 5 and ? day 10 for HPLC detection. Each sample was sampled three times in parallel.

NC(=O)NC(CC(=O)[O-])C(=O)[O-].[Fe+2] (racemic) [Compound 7, Iron N-carbamoyl-DL-aspartate]
ADFI (g/d*each pig) (weaned piglets): 330 ± 11^a g/d*each pig
ADG (g/d*each pig) (weaned piglets): 153 ± 1^bc g/d*each pig
FCR (weaned piglets): 2.15 ± 0.06
Detection result of the content of test sample (%) Day 5 ([1]; 2% premix): 96.74%
Detection result of the content of test sample (%) Day 10 ([1]; 2% premix): 94.98%
Detection result of the content of test sample (%) Day 5 ([1]; Raw material): 97.63%
Detection result of the content of test sample (%) Day 10 ([1]; Raw material): 96.01%

NC(=O)NC(CC(=O)[O-])C(=O)[O-].[Ca+2] (racemic) [Compound 4, Calcium N-carbamoyl-DL-aspartate]
ADFI (g/d*each pig) (weaned piglets): 333 ± 8^a g/d*each pig
ADG (g/d*each pig) (weaned piglets): 157 ± 0^c g/d*each pig
FCR (weaned piglets): 2.13 ± 0.05
Detection result of the content of test sample (%) Day 5 ([1]; 2% premix): 98.93%
Detection result of the content of test sample (%) Day 10 ([1]; 2% premix): 97.99%
Detection result of the content of test sample (%) Day 5 ([1]; Raw material): 101.54%
Detection result of the content of test sample (%) Day 10 ([1]; Raw material): 101.87%

NC(=O)NC(CC(=O)[O-])C(=O)[O-].[Zn+2] (racemic) [Compound 5, Zinc N-carbamoyl-DL-aspartate]
ADFI (g/d*each pig) (weaned piglets): 418 ± 19^c g/d*each pig
ADG (g/d*each pig) (weaned piglets): 198 ± 3^6 g/d*each pig
FCR (weaned piglets): 2.11 ± 0.07
Detection result of the content of test sample (%) Day 5 ([1]; 2% premix): 96.89%
Detection result of the content of test sample (%) Day 10 ([1]; 2% premix): 96.36%
Detection result of the content of test sample (%) Day 5 ([1]; Raw material): 99.76%
Detection result of the content of test sample (%) Day 10 ([1]; Raw material): 98.47%

NC(=O)NC(CC(=O)[O-])C(=O)[O-].[Cu+2] (racemic) [Compound 6, Copper N-carbamoyl-DL-aspartate]
ADFI (g/d*each pig) (weaned piglets): 329 ± 13^a g/d*each pig
ADG (g/d*each pig) (weaned piglets): 156 ± 1^c g/d*each pig
FCR (weaned piglets): 2.11 ± 0.07
Detection result of the content of test sample (%) Day 5 ([1]; 2% premix): 98.28%
Detection result of the content of test sample (%) Day 10 ([1]; 2% premix): 97.94%
Detection result of the content of test sample (%) Day 5 ([1]; Raw material): 99.91%
Detection result of the content of test sample (%) Day 10 ([1]; Raw material): 98.31%

NC(=O)NC(CC(=O)[O-])C(=O)[O-].[Na+].[Na+] (racemic) [Compound 3, Sodium N-carbamoyl-DL-aspartate]
ADFI (g/d*each pig) (weaned piglets): 388 ± 11^bc g/d*each pig
ADG (g/d*each pig) (weaned piglets): 182 ± 2^d g/d*each pig
FCR (weaned piglets): 2.13 ± 0.04
Detection result of the content of test sample (%) Day 5 ([1]; 2% premix): 99.33%
Detection result of the content of test sample (%) Day 10 ([1]; 2% premix): 99.21%
Detection result of the content of test sample (%) Day 5 ([1]; Raw material): 103.02%
Detection result of the content of test sample (%) Day 10 ([1]; Raw material): 103.53%
